According to the supplement of paper PMC10307832:

Experiments:
Experiment in all cases: relative viability (nuclei count vs DMSO), 5 days (fraction); higher = more cells survive
Selisistat + Crizotinib = compound: C1CC(C2=C(C1)C3=C(N2)C=CC(=C3)Cl)C(=O)N [Selisistat] + C[C@@H](Oc1cc(-c2cnn(C3CCNCC3)c2)cnc1N)c1c(Cl)ccc(F)c1Cl [Crizotinib] (partner 1 µM)
Method in brief: (§1)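 After 5 days of treatment, lung cancer cells in 1536-well plates were fixed and stained in a single step (final 0.05% Triton X-100, 1% formaldehyde, 1 ug/ml Hoechst) and their nuclei counted on 4× images. Treatment had been applied by pin tool the day after seeding as one drug alone or as a fixed anchor-drug dose with five library-drug doses (not always all listed) in √10 steps. Relative viability is the nuclei count of treated wells divided by that of vehicle wells, and values are medians of duplicate plates.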

Selisistat + Linsitinib = compound: C1CC(C2=C(C1)C3=C(N2)C=CC(=C3)Cl)C(=O)N [Selisistat] + C[C@]1(O)C[C@@H](c2nc(-c3ccc4ccc(-c5ccccc5)nc4c3)c3c(N)nccn32)C1 [Linsitinib] (partner 1 µM)
Method in brief: as §1

Serdemetan + Decitabine = compound: c1ccc2c(CCNc3ccc(Nc4ccncc4)cc3)c[nH]c2c1 [Serdemetan] + Nc1ncn([C@H]2C[C@H](O)[C@@H](CO)O2)c(=O)n1 [Decitabine] (partner 2 µM)
Method in brief: as §1

Serdemetan + Palbociclib = compound: c1ccc2c(CCNc3ccc(Nc4ccncc4)cc3)c[nH]c2c1 [Serdemetan] + CC(=O)c1c(C)c2cnc(Nc3ccc(N4CCNCC4)cn3)nc2n(C2CCCC2)c1=O [Palbociclib] (partner 0.5 µM)
Method in brief: as §1

Cell Line	relative viability (Selisistat + Crizotinib; first compound 0.4 µM)	relative viability (Selisistat + Crizotinib; first compound 1.265 µM)	relative viability (Selisistat + Crizotinib; first compound 4 µM)	relative viability (Selisistat + Crizotinib; first compound 12.65 µM)	relative viability (Selisistat + Crizotinib; first compound 40 µM)	relative viability (Selisistat + Linsitinib; first compound 0.4 µM)	relative viability (Selisistat + Linsitinib; first compound 1.265 µM)	relative viability (Selisistat + Linsitinib; first compound 4 µM)	relative viability (Selisistat + Linsitinib; first compound 12.65 µM)	relative viability (Selisistat + Linsitinib; first compound 40 µM)	relative viability (Serdemetan + Decitabine; first compound 0.04 µM)	relative viability (Serdemetan + Decitabine; first compound 0.1265 µM)	relative viability (Serdemetan + Decitabine; first compound 4 µM)	relative viability (Serdemetan + Palbociclib; first compound 0.04 µM)	relative viability (Serdemetan + Palbociclib; first compound 0.1265 µM)	relative viability (Serdemetan + Palbociclib; first compound 4 µM)	relative viability (Serdemetan + Decitabine; first compound 0.4 µM)	relative viability (Serdemetan + Decitabine; first compound 1.265 µM)	relative viability (Serdemetan + Palbociclib; first compound 0.4 µM)	relative viability (Serdemetan + Palbociclib; first compound 1.265 µM)
LOU-NH91	0.766	0.664	0.683	0.729	0.738	0.999	0.95	0.848	1.08	0.937	0.813	0.845	0.872	0.518	0.515	0.563	–	–	–	–
LU99A	0.568	0.438	0.662	0.493	0.677	0.537	0.608	0.657	0.516	0.485	0.943	0.84	0.277	0.431	0.371	0.22	0.775	0.419	0.308	0.203
LXF-289	0.853	0.803	0.786	0.709	0.805	0.995	0.954	0.895	0.913	1.01	0.354	0.357	0.337	0.544	0.542	0.381	0.349	0.268	0.527	0.524
NCI-H23	0.515	0.474	–	0.468	0.473	0.631	0.466	–	0.579	0.6	0.303	0.308	0.302	0.474	0.472	0.437	0.223	–	0.461	–
NCI-H322M	0.959	1.01	–	0.903	1.15	1	1.03	–	0.959	0.976	0.667	0.675	0.647	0.491	0.488	0.463	0.682	0.534	0.474	0.327
NCI-H358	0.586	0.526	–	0.621	0.613	0.722	0.726	–	0.687	0.68	0.186	0.234	0.195	0.134	0.135	0.117	0.221	0.18	0.132	0.122
NCI-H441	0.754	0.652	0.915	0.673	0.806	0.648	0.639	0.502	0.448	0.554	0.256	0.22	0.172	0.206	0.212	0.225	0.249	0.219	0.18	0.147
NCI-H460	1.02	0.658	–	0.881	0.987	0.848	0.663	–	0.821	0.824	0.374	0.385	0.102	0.166	0.175	0.0544	0.314	0.194	0.0992	0.0798
NCI-H520	0.743	0.714	0.873	0.742	0.796	0.823	0.954	0.982	0.967	0.969	0.44	0.481	0.335	0.261	0.215	0.193	0.57	0.4	0.252	0.179
NCI-H647	1.16	1	–	1.01	0.948	1.15	1.12	–	1.07	1.26	0.276	0.368	0.235	0.374	0.332	0.243	0.403	0.28	0.528	0.322
NCI-H650	0.707	–	0.786	0.596	0.664	0.824	–	0.987	0.72	1.01	0.321	0.331	0.262	0.332	0.365	0.287	0.321	0.24	0.344	0.282
NCI-H661	0.967	0.952	1.17	1.04	0.996	0.596	0.609	0.52	0.488	0.588	0.543	0.533	0.469	0.387	0.416	0.393	0.533	0.473	0.411	0.382
NCI-H727	0.823	0.816	–	–	0.729	0.297	0.292	–	–	0.395	0.849	0.797	0.826	0.351	0.638	0.644	0.828	0.965	0.604	0.722
NCI-H838	0.819	0.841	0.888	0.759	0.801	1.06	1.06	1.03	1.06	1.06	0.437	0.459	0.451	0.212	0.221	0.23	0.404	0.386	0.243	0.232
NCI-H1355	1.01	1.08	–	1.08	1.21	0.903	0.838	–	0.974	0.996	0.382	0.34	0.31	0.381	0.381	0.366	0.306	0.288	0.366	0.371
NCI-H1437	0.855	0.885	0.977	0.865	0.792	1.11	0.981	1.09	0.986	0.89	0.511	0.5	0.427	0.289	0.32	0.315	0.582	0.492	0.334	0.359
NCI-H1651	0.866	0.893	0.907	0.802	0.855	0.936	0.898	1.02	1.05	0.849	0.486	0.414	0.289	0.51	0.499	0.29	0.497	0.275	0.523	0.358
NCI-H1666	1.12	0.871	0.788	0.835	0.618	1.18	0.743	0.902	0.823	0.605	0.798	0.657	0.697	0.645	0.655	0.66	0.652	0.645	0.63	–
NCI-H1734	0.696	0.606	0.714	0.761	0.648	0.956	0.913	0.913	0.846	0.828	0.44	0.26	0.188	0.296	0.23	0.212	0.226	0.111	0.229	0.166
NCI-H1755	0.917	0.927	0.952	0.82	0.946	1.11	1.04	0.993	1.02	1.05	0.697	0.73	0.434	0.45	0.42	0.39	0.668	0.488	0.445	0.344
NCI-H1792	1.01	1.02	–	0.907	0.965	0.548	0.594	–	0.438	0.635	0.429	0.459	0.176	0.661	0.7	0.56	0.417	0.327	0.596	0.395
NCI-H1915	0.917	0.87	0.883	0.885	0.908	1.15	1.09	1.14	1.08	1.13	0.266	0.259	0.239	0.483	0.52	0.39	0.253	0.231	0.482	0.434
NCI-H1944	1.13	1.01	–	1.09	1.04	1.15	1.17	–	1.21	1.18	0.493	0.409	0.295	0.364	0.355	0.221	0.384	0.269	0.31	0.253
NCI-H1975	0.904	0.863	0.916	0.854	0.807	0.849	0.805	0.871	0.831	0.813	0.421	0.369	0.34	0.691	0.662	0.783	0.306	0.262	0.434	0.331
NCI-H1993	0.803	0.92	–	0.987	0.854	0.719	0.72	–	0.648	0.773	0.696	0.593	0.56	0.64	0.603	0.569	0.542	0.577	0.736	0.699
NCI-H2009	1.09	1.02	1	0.989	0.906	1.19	1.17	1.19	1.1	1.18	0.373	0.37	0.345	0.238	0.227	0.193	0.431	0.328	0.258	0.162
NCI-H2023	0.69	0.651	0.636	0.68	0.576	0.686	0.581	0.662	0.735	0.569	0.206	0.21	0.138	0.355	0.328	0.215	0.225	0.135	0.341	0.263
NCI-H2085	0.893	0.702	0.886	0.864	0.951	0.985	1	0.795	0.803	0.902	0.541	0.582	0.374	0.46	0.457	0.342	0.485	0.324	0.466	0.382
